Test results from US20040235939A1, “Synthesis of peloruside a and analogs thereof for use as antitumor agents” (priority 2003, published 2004).
Read-outs that look alike come from different tables or passages of the source.

Tests used:
[1] = test system: NCI-H1395; experiment: SRB cytotoxicity assay, NCI-H1395; format: cell-based, human
Method: (§1) Cells were treated on Days 1, 3, 5, and 7 with 5 μL of media, vehicle, or drug. Peloruside A was resuspended in 0.1% DMSO and added to wells to a final concentration of 0.01, 0.1, 1, 10 or 100 nM. Taxol® (Sigma-Aldrich) was resuspended in 0.1% ethanol and added to cells to a final concentration of 0.1, 1, 10, 100, or 1000 nM.
(§2) The amount of surviving cells was measured using the sulforhodamine B (SRB) assay as previously described (Skehan et al., New colorimetric cytotoxicity assay for anticancer-drug screening. J. Natl. Cancer Inst., 1990. 82(13): p. 1107-12). Cells were fixed on Days 5, 7, and 9 (representing 4, 6, and 8 days of exposure to drug or control, respectively) with 50% (w/v) trichloroacetic acid for 1 hour at 4° C., rinsed thoroughly with water, and dried overnight. The dried cells were stained with 4% sulforhodamine B in 1% acetic acid, rinsed thoroughly and dried overnight. The bound dye was resuspended in 10 mM Tris and the absorbance was read at 492 nm. Percent growth inhibition (GI) was calculated as follows: %GI=(1−(absorbance sample/absorbance vehicle))×100. The absorbance value for each drug concentration and control represents the average of 6 replicates. The %GI was plotted against the log[drug] to generate the growth curves. The concentration of drug required to inhibit growth by 50% (GI50) was calculated for each time point.

[2] = test system: SK-HEP-1; experiment: SRB cytotoxicity assay, SK-HEP-1; format: cell-based; conditions: Homo sapiens
Method: as §1, §2

[3] = test system: Tubulin, purified from bovine brains; experiment: Tubulin polymerization in vitro; format: biochemical
Method: Tubulin, purified from bovine brains and prepared in PEM-buffer (80 mM PIPES, 0.5 mM MgCl2, 1 mM EGTA, pH 6.9) was thawed under vacuum on ice. Tubulin was incubated at 37° C. until almost melted and resuspended to a final concentration of 2 mg/ml and placed on ice. Peloruside A or Taxol® was added into transparent 96-well plates (Coming Incorp. Costar) and placed on ice. GTP (Sigma) was added to a final concentration of 1 mM. The 96 well plate was warmed to 37° C. and 120 μl of tubulin solution was added into each well. The absorbance of the reaction at 340 nm over time (each 40-50 sec.) was measured on the spectrophotometer TECAN SPECTRAFluor Plus. Peloruside A or Taxol® was added to the tubulin at a final concentration of 5 or 10 μM.

[4] = test system: 1A9 cells; experiment: Cell Titer-Glo cell viability, parent 1A9 cells; format: cell-based, human; conditions: parental 1A9 cells, 48 hours
Method: These cell lines have specific amino acid mutations in tubulin that prevent Taxol®-binding. […] Synthetic (+)-Peloruside A was used for the present example.
1A9, ptx10 and ptx22 cells were plated in 96-well plates to approximately 50% confluency. On the next day, Taxol® or Peloruside A was added to each well and incubated for 48 hours. A final concentration of 1, 2, 3, 4, 5, 8, 10, 20, 30, 50, 100, 300, 500, or 1000 nM of Taxol® was used. A final concentration of 10, 20, 30, 40, 50 or 70 nM of Peloruside A was used. Cell viability was measured using the Cell Titer-Glo Luminescent Cell Viability Assay (Promega). FIGS. 80-82 show bar graphs of cell viability at various concentrations of Peloruside A and Taxol®.

[5] = test system: various cultured human tumor cell lines; experiment: Proliferation of a panel of tumor cell lines; format: cell-based; conditions: panel: colon, pancreas, melanoma, ovarian, renal, liver, lung, breast, prostate
Method: as §1, §2

SMILES: CC[C@H](/C=C(/C)C1C[C@@H](OC)CC(O)C(C)(C)C2(O)OC(C[C@@H](OC)C2O)C[C@@H](OC)[C@H](O)C(=O)O1)CO (single isomer, unassigned; (+)) [Peloruside A, (+)-Peloruside A]
- GI50 ([1]; Homo sapiens, NCI-H1395, 96 h): 1010 nM
- GI50 ([1]; Homo sapiens, NCI-H1395, 144 h): 84.1 nM
- GI50 ([1]; Homo sapiens, NCI-H1395, 192 h): 15.2 nM
- GI50 ([2]; SK-HEP1, 96 h): 39.3 nM
- GI50 ([2]; SK-HEP1, 144 h): 11.2 nM
- GI50 ([2]; SK-HEP1, 192 h): 1.45 nM
- polymerization of tubulin dimers into microtubule polymers (microtubule-stabilizing activity) [3]: did polymerize tubulin dimers into microtubule polymers
- tubulin stabilization activity ([3]; 5 or 10 μM, 37° C., absorbance at 340 nm): potent tubulin stabilization activity
- inhibition of cell growth (antimitotic activity) [4]: potent antimitotic activity
- inhibition of proliferation of tumor cell lines [5]: inhibited proliferation
- inhibition of proliferation of tumor cell lines ([5]; listed as ent-40): did inhibit the growth

SMILES: CC(=O)O[C@H]1C(=O)[C@@]2(C)[C@H]([C@H](OC(=O)c3ccccc3)[C@]3(O)C[C@H](OC(=O)[C@H](O)[C@@H](NC(=O)c4ccccc4)c4ccccc4)C(C)=C1C3(C)C)[C@]1(OC(C)=O)CO[C@@H]1C[C@@H]2O [Paclitaxel, paclitaxel, reference compound]
- GI50 ([1]; Homo sapiens, NCI-H1395, 144 h, NCl-H1395, Lung, 6 Days, read-out: GI50): 6.81 nM
- GI50 ([1]; Homo sapiens, NCI-H1395, 192 h, NCl-H1395, Lung, 8 Days, read-out: GI50): 5.27 nM
- GI50 ([1]; NCl-H1395, Lung, 4 Days): 4 Days: Resistant
- GI50 ([2]; SK-HEP1, 96 h, SK-HEP-1, Liver, 4 Days, read-out: GI50): 5.6 nM
- GI50 ([2]; SK-HEP1, 144 h, SK-HEP-1, Liver, 6 Days, read-out: GI50): 2.85 nM
- GI50 ([2]; SK-HEP1, 192 h, SK-HEP-1, Liver, 8 Days, read-out: GI50): 0.45 nM
